Assay results: the OligoGym collection
Values joined by “and” are separate entries in the source; they are usually repeats but may differ in a detail not shown here. Equal entries are not always repeated. HELM strings list units from the 5' end as sugar, base in round brackets, then linkage (d deoxyribose, r ribose, m 2'-O-methyl, p phosphodiester). Methylation of C is not given here. [moe] = 2'-O-(2-methoxyethyl) (MOE); [cEt] = constrained ethyl (cEt); [sp] = phosphorothioate linkage

Biological target: HBV
Details: ASO

| Substance | target mRNA inhibition (HepG2, 0.07 µM) | further results |
| --- | --- | --- |
| RNA1{[moe](A)[sp].[cEt](T)[sp].d(G)[sp].d(A)[sp].d(G)[sp].d(G)[sp].d(C)[sp].d(A)[sp].d(T)[sp].d(A)[sp].d(G)[sp].d(C)[sp].[cEt](A)[sp].[moe](G)[sp].[cEt](C)[sp].[moe](A)}$$$$V2.0 | 63% and 57% |  |
| RNA1{[moe](A)[sp].[moe](A)[sp].[moe](C)[sp].[moe](C)[sp].[moe](A)[sp].d(C)[sp].d(T)[sp].d(G)[sp].d(A)[sp].d(A)[sp].d(C)[sp].d(A)[sp].d(A)[sp].d(A)[sp].[moe](T)[sp].[moe](G)[sp].[moe](G)}$$$$V2.0 | 55% and 52% |  |
| RNA1{[moe](A)[sp].[moe](A)[sp].[moe](C)[sp].[moe](C)[sp].[moe](A)[sp].d(C)[sp].d(T)[sp].d(G)[sp].d(A)[sp].d(A)[sp].d(C)[sp].d(A)[sp].d(A)[sp].d(A)[sp].[moe](T)[sp].[moe](G)}$$$$V2.0 | 24% and 20% |  |
| RNA1{[moe](A)[sp].[moe](A)[sp].[moe](G)[sp].[cEt](C)[sp].[cEt](G)[sp].d(A)[sp].d(A)[sp].d(G)[sp].d(T)[sp].d(G)[sp].d(C)[sp].d(A)[sp].[cEt](C)[sp].[cEt](A)[sp].[moe](C)[sp].[moe](G)[sp].[moe](G)}$$$$V2.0 |  | target mRNA inhibition (HepG2, 0.009375 µM): 23%; target mRNA inhibition (HepG2, 0.01875 µM): 19%; target mRNA inhibition (HepG2, 0.0375 µM): 39%; target mRNA inhibition (HepG2, 0.075 µM): 49%; target mRNA inhibition (HepG2, 0.15 µM): 66%; target mRNA inhibition (HepG2, 0.3 µM): 75% |
| RNA1{[moe](A)[sp].[moe](A)[sp].[moe](G)[sp].[moe](A)[sp].d(T)[sp].d(G)[sp].d(A)[sp].d(G)[sp].d(G)[sp].d(C)[sp].d(A)[sp].d(T)[sp].d(A)[sp].[moe](G)[sp].[moe](C)[sp].[moe](A)[sp].[moe](G)}$$$$V2.0 | 44% and 37% |  |
| RNA1{[moe](A)[sp].[moe](A)[sp].[moe](G)[sp].[moe](C)[sp].d(G)[sp].d(A)[sp].d(A)[sp].d(G)[sp].d(T)[sp].d(G)[sp].d(C)[sp].d(A)[sp].d(C)[sp].[moe](A)[sp].[moe](C)[sp].[moe](G)[sp].[moe](G)}$$$$V2.0 | 78% and 64% | target mRNA inhibition (HepG2, 0.0092593 µM): 5%; target mRNA inhibition (HepG2, 0.0277778 µM): 27%; target mRNA inhibition (HepG2, 0.0833333 µM): 69%; target mRNA inhibition (HepG2, 0.25 µM): 81% |
| RNA1{[moe](A)[sp].[moe](A)[sp].[moe](G)[sp].d(T)[sp].d(C)[sp].d(C)[sp].d(A)[sp].d(C)[sp].d(C)[sp].d(A)[sp].d(C)[sp].d(G)[sp].d(A)[sp].[cEt](G)[sp].[cEt](T)[sp].[cEt](C)}$$$$V2.0 | 19% and 25% |  |
| RNA1{[moe](A)[sp].[moe](A)[sp].[moe](T)[sp].[moe](T)[sp].[moe](T)[sp].[moe](A)[sp].d(T)[sp].d(G)[sp].d(C)[sp].d(C)[sp].d(T)[sp].d(A)[sp].d(C)[sp].d(A)[sp].d(G)[sp].[moe](C)[sp].[moe](C)}$$$$V2.0 | 53% and 48% |  |
| RNA1{[moe](A)[sp].[moe](A)[sp].[moe](T)[sp].[moe](T)[sp].[moe](T)[sp].d(A)[sp].d(T)[sp].d(G)[sp].d(C)[sp].d(C)[sp].d(T)[sp].d(A)[sp].d(C)[sp].d(A)[sp].[moe](G)[sp].[moe](C)[sp].[moe](C)}$$$$V2.0 | 63% and 50% |  |
| RNA1{[moe](A)[sp].[moe](A)[sp].d(C)[sp].d(C)[sp].d(A)[sp].d(C)[sp].d(T)[sp].d(G)[sp].d(A)[sp].d(A)[sp].d(C)[sp].[moe](A)[sp].[moe](A)[sp].[moe](A)[sp].[moe](T)[sp].[moe](G)}$$$$V2.0 | 15% and 0% |  |
| RNA1{[moe](A)[sp].[moe](A)[sp].d(C)[sp].d(T)[sp].d(G)[sp].d(G)[sp].d(A)[sp].d(G)[sp].d(C)[sp].d(C)[sp].d(A)[sp].[moe](C)[sp].[moe](C)[sp].[moe](A)[sp].[moe](G)[sp].[moe](C)}$$$$V2.0 | 48% and 43% |  |
| RNA1{[moe](A)[sp].[moe](A)[sp].d(G)[sp].d(C)[sp].d(G)[sp].d(A)[sp].d(A)[sp].d(G)[sp].d(T)[sp].d(G)[sp].d(C)[sp].[moe](A)[sp].[moe](C)[sp].[moe](A)[sp].[moe](C)[sp].[moe](G)}$$$$V2.0 | 70% and 68% |  |
| RNA1{[moe](A)[sp].[moe](C)[sp].[moe](C)[sp].[moe](A)[sp].[moe](C)[sp].[moe](T)[sp].d(G)[sp].d(A)[sp].d(A)[sp].d(C)[sp].d(A)[sp].d(A)[sp].d(A)[sp].d(T)[sp].d(G)[sp].[moe](G)[sp].[moe](C)}$$$$V2.0 | 59% and 42% |  |
| RNA1{[moe](A)[sp].[moe](C)[sp].[moe](C)[sp].[moe](A)[sp].d(A)[sp].d(T)[sp].d(T)[sp].d(T)[sp].d(A)[sp].d(T)[sp].d(G)[sp].d(C)[sp].d(C)[sp].[moe](T)[sp].[moe](A)[sp].[moe](C)[sp].[moe](A)}$$$$V2.0 | 39% and 38% |  |
| RNA1{[moe](A)[sp].[moe](C)[sp].[moe](C)[sp].d(A)[sp].d(A)[sp].d(T)[sp].d(T)[sp].d(T)[sp].d(A)[sp].d(T)[sp].d(G)[sp].d(C)[sp].[moe](C)[sp].[moe](T)[sp].[moe](A)[sp].[moe](C)[sp].[moe](A)}$$$$V2.0 | 31% and 33% |  |
| RNA1{[moe](A)[sp].[moe](C)[sp].[moe](C)[sp].d(A)[sp].d(C)[sp].d(T)[sp].d(G)[sp].d(A)[sp].d(A)[sp].d(C)[sp].d(A)[sp].d(A)[sp].[moe](A)[sp].[moe](T)[sp].[moe](G)[sp].[moe](G)[sp].[moe](C)}$$$$V2.0 | 78% |  |
| RNA1{[moe](A)[sp].[moe](C)[sp].[moe](C)[sp].d(A)[sp].d(C)[sp].d(T)[sp].d(G)[sp].d(A)[sp].d(A)[sp].d(C)[sp].d(A)[sp].d(A)[sp].[moe](A)[sp].[moe](T)[sp].[moe](G)[sp].[moe](G)}$$$$V2.0 | 0% and 3% |  |
| RNA1{[moe](A)[sp].[moe](C)[sp].[moe](G)[sp].[moe](T)[sp].[moe](G)[sp].d(C)[sp].d(A)[sp].d(G)[sp].d(A)[sp].d(G)[sp].d(G)[sp].d(T)[sp].d(G)[sp].d(A)[sp].[moe](A)[sp].[moe](G)[sp].[moe](C)}$$$$V2.0 | 73% and 52% |  |
| RNA1{[moe](A)[sp].[moe](C)[sp].[moe](G)[sp].d(T)[sp].d(G)[sp].d(C)[sp].d(A)[sp].d(G)[sp].d(A)[sp].d(G)[sp].d(G)[sp].d(T)[sp].[moe](G)[sp].[moe](A)[sp].[moe](A)[sp].[moe](G)}$$$$V2.0 | 51% and 35% |  |
| RNA1{[moe](A)[sp].[moe](C)[sp].[moe](T)[sp].[moe](A)[sp].[moe](G)[sp].d(T)[sp].d(A)[sp].d(A)[sp].d(A)[sp].d(C)[sp].d(T)[sp].d(G)[sp].d(A)[sp].d(G)[sp].[moe](C)[sp].[moe](C)[sp].[moe](A)}$$$$V2.0 | 67% and 61% |  |
| RNA1{[moe](A)[sp].[moe](C)[sp].[moe](T)[sp].[moe](G)[sp].[moe](G)[sp].d(A)[sp].d(G)[sp].d(C)[sp].d(C)[sp].d(A)[sp].d(C)[sp].d(C)[sp].d(A)[sp].d(G)[sp].[moe](C)[sp].[moe](A)[sp].[moe](G)}$$$$V2.0 | 46% and 39% |  |
| RNA1{[moe](A)[sp].[moe](C)[sp].[moe](T)[sp].[moe](G)[sp].[moe](G)[sp].d(A)[sp].d(G)[sp].d(C)[sp].d(C)[sp].d(A)[sp].d(C)[sp].d(C)[sp].d(A)[sp].d(G)[sp].[moe](C)[sp].[moe](A)}$$$$V2.0 | 54% and 48% |  |
| RNA1{[moe](A)[sp].[moe](C)[sp].d(G)[sp].d(G)[sp].d(G)[sp].d(C)[sp].d(A)[sp].d(A)[sp].d(C)[sp].d(A)[sp].d(T)[sp].[moe](A)[sp].[moe](C)[sp].[moe](C)[sp].[moe](T)[sp].[moe](T)[sp].[moe](G)}$$$$V2.0 | 46% |  |
| RNA1{[moe](A)[sp].[moe](C)[sp].d(T)[sp].d(A)[sp].d(G)[sp].d(T)[sp].d(A)[sp].d(A)[sp].d(A)[sp].d(C)[sp].d(T)[sp].[moe](G)[sp].[moe](A)[sp].[moe](G)[sp].[moe](C)[sp].[moe](C)[sp].[moe](A)}$$$$V2.0 | 61% |  |
| RNA1{[moe](A)[sp].[moe](C)[sp].d(T)[sp].d(A)[sp].d(G)[sp].d(T)[sp].d(A)[sp].d(A)[sp].d(A)[sp].d(C)[sp].d(T)[sp].[moe](G)[sp].[moe](A)[sp].[moe](G)[sp].[moe](C)[sp].[moe](C)}$$$$V2.0 | 57% and 47% |  |
| RNA1{[moe](A)[sp].[moe](C)[sp].d(T)[sp].d(G)[sp].d(G)[sp].d(A)[sp].d(G)[sp].d(C)[sp].d(C)[sp].d(A)[sp].d(C)[sp].[moe](C)[sp].[moe](A)[sp].[moe](G)[sp].[moe](C)[sp].[moe](A)[sp].[moe](G)}$$$$V2.0 | 70% and 61% |  |
| RNA1{[moe](A)[sp].[moe](G)[sp].[moe](A)[sp].[moe](A)[sp].[moe](G)[sp].[moe](T)[sp].d(C)[sp].d(C)[sp].d(A)[sp].d(C)[sp].d(C)[sp].d(A)[sp].d(C)[sp].d(G)[sp].d(A)[sp].[moe](G)[sp].[moe](T)}$$$$V2.0 | 39% and 30% |  |
| RNA1{[moe](A)[sp].[moe](G)[sp].[moe](A)[sp].[moe](A)[sp].[moe](G)[sp].d(T)[sp].d(C)[sp].d(C)[sp].d(A)[sp].d(C)[sp].d(C)[sp].d(A)[sp].d(C)[sp].d(G)[sp].[moe](A)[sp].[moe](G)[sp].[moe](T)}$$$$V2.0 | 11% and 0% |  |
| RNA1{[moe](A)[sp].[moe](G)[sp].[moe](A)[sp].[moe](A)[sp].d(G)[sp].d(T)[sp].d(C)[sp].d(C)[sp].d(A)[sp].d(C)[sp].d(C)[sp].d(A)[sp].d(C)[sp].[moe](G)[sp].[moe](A)[sp].[moe](G)[sp].[moe](T)}$$$$V2.0 | 32% and 20% |  |
| RNA1{[moe](A)[sp].[moe](G)[sp].[moe](A)[sp].[moe](G)[sp].[moe](A)[sp].d(A)[sp].d(G)[sp].d(T)[sp].d(C)[sp].d(C)[sp].d(A)[sp].d(C)[sp].d(C)[sp].d(A)[sp].[moe](C)[sp].[moe](G)[sp].[moe](A)}$$$$V2.0 | 28% and 27% |  |
